pIC50: −log10 of the molar value.
Molecular target: Tyrosine-protein kinase BTK (Homo sapiens, UniProt Q06187)
Test: Inhibition of BTK (unknown origin) using peptide substrate after 1 hr by HTRF assay

Tyrosine-protein kinase BTK, sequence (Q06187 whole entry): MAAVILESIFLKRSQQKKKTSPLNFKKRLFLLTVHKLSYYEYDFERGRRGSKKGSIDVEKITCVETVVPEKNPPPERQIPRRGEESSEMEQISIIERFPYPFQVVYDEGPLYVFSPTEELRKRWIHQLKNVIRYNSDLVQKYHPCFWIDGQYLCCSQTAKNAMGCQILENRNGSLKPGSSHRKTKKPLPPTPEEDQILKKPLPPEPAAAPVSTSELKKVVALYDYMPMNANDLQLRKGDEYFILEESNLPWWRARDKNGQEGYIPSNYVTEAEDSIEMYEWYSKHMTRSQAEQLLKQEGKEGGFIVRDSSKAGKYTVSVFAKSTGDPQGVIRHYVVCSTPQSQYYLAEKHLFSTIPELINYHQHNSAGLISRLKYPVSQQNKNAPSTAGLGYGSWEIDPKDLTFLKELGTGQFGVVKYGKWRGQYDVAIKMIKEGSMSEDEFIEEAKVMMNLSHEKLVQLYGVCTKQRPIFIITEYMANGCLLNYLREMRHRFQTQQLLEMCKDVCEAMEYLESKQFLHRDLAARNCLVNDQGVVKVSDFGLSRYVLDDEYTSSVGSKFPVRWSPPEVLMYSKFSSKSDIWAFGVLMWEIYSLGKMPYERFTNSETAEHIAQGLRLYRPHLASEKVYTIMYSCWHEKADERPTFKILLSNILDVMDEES

Row | SMILES | pIC50
1 | CC#CC(=O)N1CCC[C@@H](n2nc(-c3ccc(C(=O)Nc4ccccn4)cc3)c3cnccc32)C1 | 6.00 to 7.00
2 | COc1cccc(Oc2ccc(-c3nn([C@@H]4CCCN(C(=O)OC(C)(C)C)C4)c4c(OC)cncc34)cc2)c1F | ≥ 8.00
3 | C=CC(=O)N1CC[C@@H](n2nc(-c3ccc(Sc4cccc(F)c4)cc3)c3cnccc32)C1 | ≥ 8.00
4 | C=CC(=O)N1CCC[C@@H](n2nc(-c3ccc(Oc4cccc(OC)c4F)cc3)c3cncc(OC)c32)C1 | 6.00 to 7.00
5 | O=C(Nc1ccc(-c2nn(C3CCC(C(=O)O)CC3)c3ccncc23)cc1)c1ccccc1 (configuration not stated) | ≤ 5.00
6 | C=CC(=O)N1CC[C@@H](n2nc(-c3ccc(Oc4cccc(OC)c4F)cc3)c3c2CCN(C(C)=O)C3)C1 | 5.00 to 6.00

Further lines, results first:

Row | pIC50 | SMILES
7 | 7.00 to 8.00 | C=CC(=O)N1CC[C@@H](n2nc(-c3ccc(Oc4cccc(OC)c4C)cc3)c3cnccc32)C1
8 | ≥ 8.00 | C=CC(=O)N1CCC[C@H](n2nc3ccncc3c2-c2ccc(Oc3cccc(Cl)c3Cl)cc2)C1
9 | ≥ 8.00 | C=CC(=O)N1CC[C@@H](n2nc(-c3ccc(Oc4cccc(OC)c4Cl)cc3)c3cnccc32)C1
10 | ≥ 8.00 | C=CC(=O)N1CC[C@H](n2nc3ccncc3c2-c2ccc(Oc3cccc(Cl)c3Cl)cc2)C1
11 | 7.00 to 8.00 | C=CC(=O)N1CCC[C@@H](n2nc(-c3ccc(Oc4cccc(Cl)c4)cc3)c3cnccc32)C1
12 | ≥ 8.00 | C=CC(=O)N1CCC[C@@H](n2nc(-c3ccc(Oc4ccccc4)cc3)c3cnccc32)C1
